Assay results published in ChEMBL document CHEMBL1138844, “Synthesis and biological evaluation of 1-aryl-4,5-dihydro-1H-pyrazolo[3,4-d]pyrimidin-4-one inhibitors of cyclin-dependent kinases” (J Med Chem, 2004).

Legend:
[1] = target: Cyclin-dependent kinase 1/cyclin B (Homo sapiens, UniProt P06493); assay: Inhibition of Cyclin-dependent kinase 1-cyclin B; type: protein-complex assay
[2] = target: T1, Cyclin-dependent kinase 4/cyclin D1 (Homo sapiens, UniProt P11802); assay: Inhibition of Cyclin-dependent kinase 4-cyclin D1; type: protein-complex assay
T1 sequence (P11802 whole entry): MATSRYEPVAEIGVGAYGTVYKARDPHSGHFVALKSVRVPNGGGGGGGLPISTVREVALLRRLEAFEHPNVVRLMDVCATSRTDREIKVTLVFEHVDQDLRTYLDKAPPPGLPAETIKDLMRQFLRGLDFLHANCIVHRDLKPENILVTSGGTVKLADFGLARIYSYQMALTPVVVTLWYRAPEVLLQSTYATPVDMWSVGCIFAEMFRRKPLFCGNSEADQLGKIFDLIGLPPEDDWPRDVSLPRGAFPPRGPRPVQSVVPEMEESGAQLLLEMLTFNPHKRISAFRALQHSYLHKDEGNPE
T1 sequence (P24385 whole entry, further chain): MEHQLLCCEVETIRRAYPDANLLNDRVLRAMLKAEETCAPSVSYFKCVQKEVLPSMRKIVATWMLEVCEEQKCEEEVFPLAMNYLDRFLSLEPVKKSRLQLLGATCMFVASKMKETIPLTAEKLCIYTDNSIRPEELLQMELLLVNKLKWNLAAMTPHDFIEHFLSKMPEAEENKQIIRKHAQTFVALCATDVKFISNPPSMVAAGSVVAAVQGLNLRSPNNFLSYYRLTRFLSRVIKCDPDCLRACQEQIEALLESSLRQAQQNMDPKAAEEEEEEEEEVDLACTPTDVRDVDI

HCT-116 [3] = assay: Inhibition of human colon carcinoma cell (HCT116) proliferation; type: functional, cell-based
[4] = Inhibitory concentration against NCI H460 cell line was determined; type: functional, cell-based, Homo sapiens
COLO 205 = assay: Inhibitory concentration against human colon cell line COLO 205 was determined; type: functional, cell-based
HCT-116 [5] = assay: Inhibitory concentration against human colon cell line HCT116 was determined; type: functional, cell-based
[6] = Inhibitory concentration against human breast cell line MDA MB468 was determined; type: functional, cell-based; conditions: mda-mb-468
MCF7 = assay: Inhibitory concentration against human breast cell line MCF-7 was determined; type: functional, cell-based
T47D = assay: Inhibitory concentration against human breast cell line T47D was determined; type: functional, cell-based
A498 = assay: Inhibitory concentration against human kidney cell line A498 was determined; type: functional, cell-based
DU-145 = assay: Inhibitory concentration against human prostate cell line DU145 was determined; type: functional, cell-based
[7] = Partition coefficient (logP); type: physicochemical; conditions: octanol/water
[8] = target: Cyclin-dependent kinase 2/cyclin E (Homo sapiens, UniProt P24941)
Description: Inhibition of Cyclin-dependent kinase 2-cyclin E

[9] = Inhibition of Protein Kinase A activity
[10] = target: T1, Cyclin-dependent kinase 4/cyclin D1; assay: Inhibition of Cyclin-dependent kinase 4/cyclin D1; type: protein-complex assay
AG1523 = assay: Concentration required for growth inhibition of human fibroblast cell line Ag 1523; type: functional, cell-based
HCT-116 [11] = assay: Concentration required for growth inhibition of human colon carcinoma cell line HCT116; type: functional, cell-based
[12] = target: Tyrosine-protein kinase ABL1 (Homo sapiens, UniProt P00519)
Chain of Tyrosine-protein kinase ABL1 (P00519 whole entry): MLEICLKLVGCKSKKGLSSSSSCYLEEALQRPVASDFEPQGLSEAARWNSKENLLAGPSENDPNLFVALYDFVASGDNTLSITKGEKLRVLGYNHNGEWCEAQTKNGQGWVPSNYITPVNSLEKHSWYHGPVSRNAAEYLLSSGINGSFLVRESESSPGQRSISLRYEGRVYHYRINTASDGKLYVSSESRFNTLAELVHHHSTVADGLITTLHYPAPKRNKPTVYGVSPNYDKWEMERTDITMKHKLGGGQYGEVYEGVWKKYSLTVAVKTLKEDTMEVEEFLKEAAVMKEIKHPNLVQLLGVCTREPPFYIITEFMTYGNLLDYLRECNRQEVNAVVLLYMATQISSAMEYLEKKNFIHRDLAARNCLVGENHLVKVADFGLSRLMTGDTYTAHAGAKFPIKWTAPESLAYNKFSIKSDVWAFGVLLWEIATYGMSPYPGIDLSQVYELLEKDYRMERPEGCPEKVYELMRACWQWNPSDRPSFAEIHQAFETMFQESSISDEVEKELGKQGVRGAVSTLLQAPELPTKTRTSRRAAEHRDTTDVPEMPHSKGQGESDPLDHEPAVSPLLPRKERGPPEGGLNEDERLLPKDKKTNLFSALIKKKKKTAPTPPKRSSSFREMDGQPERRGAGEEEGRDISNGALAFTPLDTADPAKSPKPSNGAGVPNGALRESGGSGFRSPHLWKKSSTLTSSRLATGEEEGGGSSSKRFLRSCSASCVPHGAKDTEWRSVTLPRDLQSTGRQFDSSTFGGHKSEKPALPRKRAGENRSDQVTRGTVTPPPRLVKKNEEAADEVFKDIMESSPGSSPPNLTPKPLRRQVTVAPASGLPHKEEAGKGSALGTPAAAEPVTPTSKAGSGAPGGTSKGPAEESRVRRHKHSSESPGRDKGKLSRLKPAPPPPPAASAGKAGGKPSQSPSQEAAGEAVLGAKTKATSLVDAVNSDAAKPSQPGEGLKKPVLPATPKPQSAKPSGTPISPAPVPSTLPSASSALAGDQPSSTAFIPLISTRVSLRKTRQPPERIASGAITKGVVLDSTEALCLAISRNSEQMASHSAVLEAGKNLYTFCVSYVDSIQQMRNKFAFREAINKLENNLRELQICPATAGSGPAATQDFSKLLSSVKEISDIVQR
Description: Inhibition of c-Abl tyrosine kinase activity

Row | IC50 [1] | IC50 [2] | IC50 (HCT-116 [3]) | logP [7] | IC50 [8] | Structure (SMILES) | also measured
1 | 100 nM | 590 nM | 30 nM | 4.2 | 10 nM | CN(C)c1ccc(C(=C2C=CC(=[N+](C)C)C=C2)c2ccc(N(C)C)cc2)cc1.CN(C)c1ccc(C(=C2C=CC(=[N+](C)C)C=C2)c2ccc(N(C)C)cc2)cc1.CN=C1C=CC(=C(c2ccc(N(C)C)cc2)c2ccc(N(C)C)cc2)C=C1 | IC50 [4]: 16 nM; IC50 (COLO 205): 13 nM; IC50 (HCT-116 [5]): 34 nM; IC50 [6]: 12 nM; IC50 (MCF7): 14 nM; IC50 (T47D): 16 nM; IC50 (A498): 57 nM; IC50 (DU-145): 15 nM
2 | > 270 nM | > 2200 nM | 500 nM |  | 20 nM | CCc1nn(-c2c(Cl)cc(Cl)cc2Cl)c2nc(Cc3ccc(O)c(C)c3)[nH]c(=O)c12 | 
3 | 520 nM | 80 nM | 670 nM |  | 20 nM | CCc1nn(-c2c(Cl)cc(Cl)cc2Cl)c2nc(Cc3ccc(C)c(O)c3)[nH]c(=O)c12 | 
4 | 200 nM | 20 nM | 130 nM |  | 10 nM | CCc1nn(-c2c(Cl)cc(Cl)cc2Cl)c2nc(Cc3ccc(OC)c(O)c3)[nH]c(=O)c12 | 
5 | 30 nM | 1300 nM | 20 nM | 3.9 | 9 nM | CCc1nn(-c2c(Cl)cc(Cl)cc2Cl)c2nc(Cc3ccc(NC(C)=O)cc3)[nH]c(=O)c12 | 
6 | > 510 nM | 4500 nM | 610 nM |  | 110 nM | CCc1nn(-c2c(Cl)cc(Cl)cc2Cl)c2nc(Cc3ccc(OC)c(OC)c3)[nH]c(=O)c12 | 
7 | 860 nM | 6600 nM | 320 nM |  | 70 nM | CCc1nn(-c2c(Cl)cc(Cl)cc2Cl)c2nc(Cc3ccc(O)c(OC)c3)[nH]c(=O)c12 | 
8 | 150 nM | 2700 nM | 420 nM | 3.8 | 10 nM | CCc1nn(-c2c(Cl)cc(Cl)cc2Cl)c2nc(Cc3ccc(N)cc3)[nH]c(=O)c12 | 
9 | 6200 nM | 2100 nM |  |  | 360 nM | CSc1nn(-c2c(Cl)cc(Cl)cc2Cl)c2nc(C)[nH]c(=O)c12 | IC50 [9]: > 500000 nM; IC50 [10]: 2100 nM; IC50 (AG1523): 9200 nM; IC50 (HCT-116 [11]): 2500 nM; IC50 [12]: 420000 nM
10 | 180 nM | 1700 nM | 160 nM | 4.9 | 10 nM | CCc1nn(-c2c(Cl)cc(Cl)cc2Cl)c2nc(Cc3ccc(NC(=O)CNC(=O)OC(C)(C)C)cc3)[nH]c(=O)c12 | 
11 | 70 nM | 460 nM | 120 nM | 3.3 | 10 nM | CCc1nn(-c2c(Cl)cc(Cl)cc2Cl)c2nc(Cc3ccc(NC(=O)CN)cc3)nc(O)c12 | 
12 |  |  |  |  |  | CN1CCC(c2c(O)cc(O)c3c(=O)cc(-c4ccccc4Cl)oc23)[C@@H](O)C1 (mixture of isomers) | IC50 [9]: > 500000 nM; IC50 (AG1523): 6700 nM; IC50 (HCT-116 [11]): 490 nM
13 |  |  |  |  |  | CN[C@@H]1C[C@H]2O[C@@](C)([C@@H]1OC)n1c3ccccc3c3c4c(c5c6ccccc6n2c5c31)C(=O)NC4 [STAUROSPORINE] | IC50 (HCT-116 [11]): 6 nM

Row | Structure (SMILES) | IC50 [1] | IC50 [2] | IC50 (HCT-116 [3]) | logP [7] | IC50 [8] | also measured
14 | CCc1nn(-c2c(Cl)cc(Cl)cc2Cl)c2nc(Cc3cccc(O)c3)[nH]c(=O)c12 | 190 nM | 60 nM | 400 nM |  | 10 nM | 
